The compounds below were run against recombinant human integrin α4β7 (binding to recombinant human MAdCAM-1) (Homo sapiens (Human), UniProt P13612+P26010) (assay: MAdCAM-1/α4β7 integrin binding inhibition activity evaluation test (α4β7-MAdCAM-1 ELISA)). Settings: plate-coated recombinant human MAdCAM-1, recombinant human α4β7, 2 h room temperature, free form of compound.
Protocol: EXAMPLE: MADCAM-1/α4β7 INTEGRIN BINDING INHIBITION ACTIVITY EVALUATION TEST (α4β7-MADCAM-1 ELISA)
Coat the 96-well microplate (Costar) with 50 μL of recombinant human MAdCAM-1 (R&D Systems) solution per well, and incubate overnight (12-18 hours) at 4° C. Wash three times with 150 μL of TBS buffer per well. Block plate with 150 μL per well with blocking buffer for 1 h at 37° C. Wash three times with 150 μL of TBS buffer per well. Dilute the recombinant human integrin α4β7 (R&D Systems) with TBS buffer containing 0.1% bovine serum albumin (BSA), then add to the 96 well plate with 50 μL per well. Add 1 μL of test compound or DMSO, cover, incubate at room temperature for 2 h, wash three times with 150 μL of TBS buffer per well. Dilute the anti-β7 antibody (R&D Systems) with 0.1% BSA TBS buffer, then add to the 96 well plate with 50 μL per well, cover, incubate at room temperature for 1 h, wash three times with 150 μL of TBS buffer per well. Add 50 μL of streptavidin-HRP (R&D Systems) per well, incubate at room temperature for 20 min, wash three times with 150 μL of TBS buffer per well. Add 50 μL of TMB substrate solution (Sigma) per well, incubate at room temperature for 5-30 min, and add 25 μL of stop solution per well to stop the reaction. Finally, measure absorbance at 450 nm with microplate reader (SpectraMax 340PC. Molecular Devices). Repeat the test to find the binding rate of cells at each concentration when the absorbance of the well without the test substance is used as 100%, and calculate the concentration IC50 that causes 50% binding inhibition and summarize the results in Table 1.
It should be stated that, as a test compound, the free form of the compound synthesized in the above examples is used.

recombinant human integrin α4β7 (binding to recombinant human MAdCAM-1), sequence (P13612 34-970): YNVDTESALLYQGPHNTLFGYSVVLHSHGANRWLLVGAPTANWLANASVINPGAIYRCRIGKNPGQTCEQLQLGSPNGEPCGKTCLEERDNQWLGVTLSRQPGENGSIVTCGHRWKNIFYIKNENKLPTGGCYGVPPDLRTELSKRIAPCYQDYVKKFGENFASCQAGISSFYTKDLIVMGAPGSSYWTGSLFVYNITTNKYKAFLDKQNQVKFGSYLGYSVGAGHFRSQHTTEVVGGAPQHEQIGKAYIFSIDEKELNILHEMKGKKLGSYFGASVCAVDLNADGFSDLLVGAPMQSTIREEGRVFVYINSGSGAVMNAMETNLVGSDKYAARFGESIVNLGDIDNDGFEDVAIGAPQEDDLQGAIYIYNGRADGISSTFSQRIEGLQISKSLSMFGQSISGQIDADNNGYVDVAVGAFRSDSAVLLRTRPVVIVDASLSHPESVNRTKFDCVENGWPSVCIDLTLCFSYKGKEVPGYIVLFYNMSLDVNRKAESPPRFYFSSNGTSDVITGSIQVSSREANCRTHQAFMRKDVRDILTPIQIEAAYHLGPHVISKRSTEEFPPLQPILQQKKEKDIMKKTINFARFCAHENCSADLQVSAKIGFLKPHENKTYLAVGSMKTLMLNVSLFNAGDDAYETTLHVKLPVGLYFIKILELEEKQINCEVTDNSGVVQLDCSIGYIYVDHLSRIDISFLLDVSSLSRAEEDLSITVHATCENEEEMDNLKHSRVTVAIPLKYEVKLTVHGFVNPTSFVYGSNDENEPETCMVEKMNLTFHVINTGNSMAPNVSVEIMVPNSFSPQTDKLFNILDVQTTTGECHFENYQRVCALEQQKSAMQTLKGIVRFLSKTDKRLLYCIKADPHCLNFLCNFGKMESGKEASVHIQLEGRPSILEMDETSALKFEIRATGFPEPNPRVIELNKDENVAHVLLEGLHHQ
recombinant human integrin α4β7 (binding to recombinant human MAdCAM-1), sequence (P26010 20-723): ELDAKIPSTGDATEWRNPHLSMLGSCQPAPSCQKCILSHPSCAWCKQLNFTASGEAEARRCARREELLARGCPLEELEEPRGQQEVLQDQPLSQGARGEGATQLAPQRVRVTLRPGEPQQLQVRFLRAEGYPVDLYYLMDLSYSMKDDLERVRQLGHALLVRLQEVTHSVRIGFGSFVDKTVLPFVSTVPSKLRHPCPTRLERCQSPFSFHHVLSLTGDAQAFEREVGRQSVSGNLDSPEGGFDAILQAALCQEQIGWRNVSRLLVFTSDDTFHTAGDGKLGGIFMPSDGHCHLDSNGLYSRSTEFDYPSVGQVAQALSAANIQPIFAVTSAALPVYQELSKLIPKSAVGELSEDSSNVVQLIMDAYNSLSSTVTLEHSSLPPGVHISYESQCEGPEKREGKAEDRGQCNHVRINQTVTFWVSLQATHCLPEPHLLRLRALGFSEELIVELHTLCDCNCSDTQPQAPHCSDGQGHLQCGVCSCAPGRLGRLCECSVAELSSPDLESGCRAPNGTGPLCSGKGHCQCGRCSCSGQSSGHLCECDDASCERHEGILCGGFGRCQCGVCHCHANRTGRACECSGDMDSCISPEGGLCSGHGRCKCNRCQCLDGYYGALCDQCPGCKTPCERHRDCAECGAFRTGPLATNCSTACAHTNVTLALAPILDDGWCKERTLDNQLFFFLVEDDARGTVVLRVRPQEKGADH

`CN1CCC(n2c(=O)n(-c3ccc(C[C@H](NC(=O)c4c(F)cccc4Cl)C(=O)O)cc3)c3c(Cl)cccc32)CC1` [Example 29, (S)-3-(4-(7-chloro-3-(1-methylpiperidin-4-yl)-2-oxo-2,3-dihydro-1H-benzo[d]imidazol-1-yl)phenyl)-2-(2-chloro-6-fluorobenzoylamino)propionic acid] was tested. Which IC50 did it give?
Its IC50 is 18.1 nM.

How did the IC50 turn out when `Cn1c(=O)n(-c2ccc(C[C@H](NC(=O)c3c(F)cccc3Cl)C(=O)O)cc2)c2c(F)cc(F)cc21` [Example 31, (S)-2-(2-chloro-6-fluorobenzoylamino)-3-(4-(5,7-difluoro-3-methyl-2-oxo-2,3-dihydro-H-benzo[d]imidazol-1-yl)phenyl)propionic acid] was run?
Its IC50 is 5.34 nM.

`Cn1c(=O)n(-c2ccc(C[C@H](NC(=O)c3c(F)cccc3Cl)C(=O)O)cc2)c2cc(Cl)c(Cl)cc21` [Example 32, (S)-2-(2-chloro-6-fluorobenzoylamino)-3-(4-(5,6-dichloro-3-methyl-2-oxo-2,3-dihydro-H-benzo[d]imidazol-1-yl)phenyl)propionic acid] was tested. Which IC50 did it give?
The IC50 was 4.19 nM.

For `Cn1c(=O)n(-c2ccc(C[C@H](NC(=O)c3c(F)cccc3Cl)C(=O)O)cc2)c2c(F)c(F)ccc21` [Example 33, (S)-2-(2-chloro-6-fluorobenzoylamino)-3-(4-(6,7-difluoro-3-methyl-2-exo-2,3-dihydro-1H-benzo[d]imidazol-1-yl)phenyl)propionic acid], which IC50 is on record?
Its IC50 is 2.7 nM.

How did the IC50 turn out when `Cn1c(=O)n(-c2ccc(C[C@H](NC(=O)c3c(F)cccc3Cl)C(=O)O)cc2)c2ccc(F)c(F)c21` [Example 34, (S)-2-(2-chloro-6-fluorobenzoylamino)-3-(4-(4,5-difluoro-3-methyl-2-oxo-2,3-dihydro-1H-benzo[d]imidazol-1-yl)phenyl)propionic acid] was run?
Its IC50 is 10.5 nM.

With `COc1cccc2c1n(-c1ccc(C[C@H](NC(=O)c3c(F)cccc3Cl)C(=O)O)cc1)c(=O)n2C` [Example 35, (S)-2-(2-chloro-6-fluorobenzoylamino)-3-(4-(7-methoxy-3-methyl-2-oxo-2,3-dihydro-1H-benzo[d]imidazol-1-yl)phenyl)propionic acid] as the compound, how does the IC50 read?
The IC50 was 0.45 nM.

For `CN(C)c1ccc2c(c1)n(-c1ccc(C[C@H](NC(=O)c3c(F)cccc3Cl)C(=O)O)cc1)c(=O)n2C` [Example 36, (S)-2-(2-chloro-6-fluorobenzoylamino)-3-(4-(6-(dimethylamino)-3-methyl-2-oxo-2,3-dihydro-1H-benzo[d]imidazol-1-yl)phenyl)propionic acid], which IC50 is on record?
Its IC50 is 1.51 nM.

For `CN(C)c1ccc2c(c1)n(C)c(=O)n2-c1ccc(C[C@H](NC(=O)c2c(F)cccc2Cl)C(=O)O)cc1` [Example 37, (S)-2-(2-chloro-6-fluorobenzoylamino)-3-(4-(5-(dimethylamino)-3-methyl-2-oxo-2,3-dihydro-1H-benzo[d]imidazol-1-yl)phenyl)propionic acid], which IC50 is on record?
The IC50 was 5.09 nM.

`Cn1c(=O)n(-c2ccc(C[C@H](NC(=O)c3c(Cl)cc(Cl)cc3Cl)C(=O)O)cc2)c2c(Cl)cccc21` [Example 38, (S)-3-(4-(7-chloro-3-methyl-2-oxo-2,3-dihydro-1H-benzo[d]imidazol-1-yl)phenyl)-2-(2,4,6-trichlorobenzamido)propionic acid] was tested. Which IC50 did it give?
Its IC50 is 27.9 nM.

How did the IC50 turn out when `Cn1c(=O)n(-c2ccc(C[C@H](NC(=O)c3c(Cl)cc(N4CCOCC4)cc3Cl)C(=O)O)cc2)c2c(Cl)cccc21` [Example 39] was run?
Its IC50 is 3.65 nM.
